Data as given in US10220100B2, “Halogenated phenols for diagnostics, antioxidant protection and drug delivery” (priority 2011, dated 2019).

Legend:
[1] = Spontaneous dehalogenation and ether cleavage in buffered aqueous solution exposed to sunlight; type: physicochemical; conditions: about 1 mM in carbonate buffer (pH 8.0), sunlight for about one hour; yellow/orange solution, iodide released
Text: In contrast to reductive deiodination, spontaneous dehalogenation (e.g., deiodination) of a halogentated phenol ring in the presence of an oxidizing agent(s) and/or free radical(s) with cleavage of a chemical linkage, such as an ether linkage, etc., between the phenol ring and a conjugated compound has not been described. According to the present invention, cleavage of the ether linkage between the aromatic rings of thyroid hormone may form visibly colored quinone and iodine-containing products in buffered aqueous solutions in vitro, and this ether cleavage reaction may be accelerated under basic pH conditions and with exposure to ionizing radiation or light. These conditions favor the increased formation of oxidizing agents and/or free radicals, which are believed to promote the reaction. […] A quinone and an iodotyrosine product are also formed by cleavage of the ether linkage during the reaction. According to embodiments of the present invention, a spontaneous reaction of dehalogenation and cleavage of a chemical bond is proposed for the targeted delivery and release of a drug compound at or to sites of inflammation or disease. This spontaneous reaction is further proposed as a basis for scavenging free radicals and/or oxidative agents (FROS) as well as for the creation of a detectable compound(s) that may be used for diagnostic purposes.

[2] = Cleavage of the C—C bond during the oxidative dehalogenation reaction; type: physicochemical; conditions: presence of free radicals and/or oxidative agents
Text: It has also been discovered that other types of bonds or linkages may also be cleaved by oxidative or free radical-mediated dehalogenation of the phenol ring. For example, as described herein, it has now been observed that a carbonyl linkage, a nitrogen linkage, a sulfinyl linkage and possibly a C—C bond on the phenol ring may also be cleaved by the oxidative dehalogenation reaction. These bonds are also considered stable, and their cleavage in connection with the dehalogenation reaction is surprising as well. One caveat with the C—C bond or linkage is that depending on the particular starting compound structure and the substituents or groups attached to the halogenated phenol ring via the C—C bond, the C—C bond or linkage may or may not be generally cleaved during or following the dehalogenation reaction (see below). […] However, other compounds do become cleaved. It is important to note that whether a C—C bond of a particular starting compound is “cleavable,” or becomes cleaved, may not be all-or-nothing (i.e., the C—C bond may be considered non-cleavable even though a small or minute amount of cleavage may occur, and vice versa). Thus, the amount or percentage of cleavage may be partial with the alternatively cleaved or non-cleaved product being possibly undetected or minute. […]

[3] = test system: spontaneous mammary tumors; conditions: 10 mg by gavage; X-ray imaging about two hours after; mice with spontaneous tumors; same mice before treatment showed no foci
Text: As described above, oxidative foci or tumors may be identified by X-ray radiographic imaging of animals following administration of an indigogenic compound of the present invention. The radio-opaque indigo-like product formed and deposited with residence time in FROS-containing tumor tissues may then be detected.
In this example, female C3H/HeN mice were obtained as multiparous retired breeders (i.e., after 3 to 4 litters) that were positive for a mammary tumor virus. […] Mice showing spontaneous tumors were given 10 mg of 5-Iodo-Indoxyl-3′,5′-Diiodo-4′-hydroxy ether substrate (product of Example 4) by gavage. These mice were then subjected to X-ray imaging of the tumors about two hours after being fed the iodo-indigogenic compound. […] When developed, the X-ray film appears dark in areas where more transmission occurs and light in areas where less transmission occurs.

[4] = test system: sites of the wound or injury; conditions: mice administered the compound, small injuries (cuts, scratches); data not shown
thyroid hormone activity = conditions: cited from earlier work

Structure (SMILES): N[C@@H](Cc1cc(I)c(Oc2cc(I)c(O)c(I)c2)c(I)c1)C(=O)O [thyroxine]
- cleavage of the ether linkage [1]: the ether linkage is broken spontaneously

Structure (SMILES): N[C@@H](Cc1ccc(O)c(I)c1)C(=O)O [mono-iodotyrosine, 3-iodo-4-hydroxy-L-phenylalanine]
- cleavage of C—C bond with the dehalogenation reaction [2]: generally not to be cleaved
- cleavage of C—C bond with the dehalogenation reaction ([2]; listed as MIT): generally not be cleaved

Structure (SMILES): Oc1c(I)cc(Oc2c[nH]c3ccc(I)cc23)cc1I [5-Iodo-Indolyl-3′,5′-Diiodo-4′-hydroxyl-p-Phenol Ether]
- radio-opaque tumor regions or foci by X-ray [3]: radio-opaque tumor regions or foci
- X-ray detection at sites of wound or injury [4]: strong detection was observed at the sites of the wound or injury

Structure (SMILES): N[C@@H](Cc1ccc(Oc2cc(I)c(O)c(I)c2)c(I)c1)C(=O)O [Reverse T3, 3,3′,5′-triiodothyronine]
- thyroid hormone activity (thyroid hormone activity): no measurable thyroid hormone activity
